{"source": "patent EP2138174A1", "about": "“PHARMACEUTICAL COMPOSITION IN THE FORM OF A SUBLINGUAL TABLET CONSISTING OF A NON-STEROIDAL ANTI-INFLAMMATORY AGENT AND AN OPIATE ANALGESIC FOR PAIN MANAGEMENT” (priority 2007, dated 2008)", "key": {"[1]": {"test_system": "stomach", "test": "Gastrointestinal side effect measurement (gastric ulcers and erosions, relative to indomethacin)", "type": "in vivo, Female rats from Wistar type", "settings": "for Gastric lesion ((Index of ulcers in drug tests / Index of ulcers in indomethacin tests) x 100): relative to indomethacin 20 mg/kg = 100, same doses and schedule as ulcer column", "experimental": "Female rats from Wistar type (150-180 g body weight) were subject to fasting 24 hours before experimentation. […] 2.5 hours later, all the groups received a second administration of the same doses. Stomachs were examined at 5 hours after first treatment in the following way: animals were sacrificed and stomach was separated which was opened along its lower curvature, gently rinsing with formol (2%) and examined. Severity of induced gastric lesions with medicament was calculated as a ratio of number of lesions (stomach ulcer or erosion) caused by provided treatment and the number of lesions caused by indomethacin (100%). This was determined to reflect the side effects induced by medicament. The sum of the area of all the ulcers in the body of each animal was calculated and served as an ulcerative index. Gastric lesion percentage was calculated in the following way: % of gastric lesion = (IUM/IUI) × 100 [formula] wherein IUM is the Medicament Ulcerative Index on test (mm^2) and IUI is the Ulcerative Index for assayed Indomethacin (mm^2).\nABC was calculated for each drug combination and for each of the components. On the basis of addition of individual pharmacological effects (Seegers et al., 1981) an ABC equivalent to the sum was expected. If the sum of the corresponding individual ABC was higher than the theoretical sum, the result was determined as enhancement; when similar to the theoretical sum it was determined to show additive antinociceptive effects. ABC was obtained through the trapezoidal rule (Rowland and Trozer, 1989). All the values for each treatment were average ± S.E.M., for six animals. ABC values for drug combinations were compared with the values which were expected by using the Student test. […] A P<0.05 was determined as statistically significant."}, "[2]": {"settings": "in vivo", "experimental": "Blood samples were taken up to 24 hours after medicament delivery.\nIn order to determine whether bioavailability is existent or not between both medicaments, a logarithmic transformation of data was carried out and they were analyzed by means of the statistical package WinNonlinTM.\nConfidence ranges proposed by FDA for semilogarithmic data in determining bioequivalency of two products are from 80 to 125%."}, "[3]": {"test_system": "rat arthritic pain model", "test": "PIFIR model: antinociceptive activity after intraarticular uric acid (rat arthritic pain model)", "type": "in vivo, Wistar [CRl (WI) BR] female rats", "design": "antinociceptive efficiency (ABC): dose or concentration left out as unconfirmed", "experimental": "A rat arthritic pain model was determined for said purpose. Data were interpreted by using a Surface Synergic Interaction Analysis (ISS) and an Isobolographic Analysis to determine the interaction nature. ISS is calculated from the total antinociceptive effect produced by a combination after a substraction of an antinociceptive effect produced separately by the drug.\nFor this trial, Wistar [CRl (WI) BR] female rats weighing 180-200 g. were weighed. Feed was maintained 12 hours before the water ad libitum access experiments. All the experimental procedures followed the recommendations of the Committee for Research and Ethical Issues of the International Association for the Study of Pain (Covino et al., 1980) and Guidelines on Ethical Standards for Investigations of Experimental Pain in Animals (Zimmermann, 1983) and they were carried out according to a protocol approved by the local Animal Ethics Committee. Animal number in experiment was kept at a […] and animals were maintained in a weathered room and light control with a 12-hour light/darkness cycle.\nUric acid was suspended in mineral oil; Ketorolac trometamine, tramadol hydrochloride and indomethacin were dissolved in carboxymethyl cellulose and orally administered.\nAntinociceptive activity was determined by using a PIFIR model which has been described in detail (López-Muñoz et al., 1993). Animals were anesthetized with chamber ether (Pyrex-glass dryer saturated with ether vapor). Nociception was induced through an intraarticular injection (ia) of 0.5 mL uric acid suspended in mineral oil in the right-hind leg knee joint. Suspension was prepared by mixing 3.0 g of uric acid with 10 mL of mineral oil in a glass mortar with pestle (Pyrex). Intraarticular injection was carried out through the patellar ligament using a 1 mL glass syringe (Beckton Dickinson LTA, Brazil) with a 5 mm 24-needle. Immediately after, an electrode was implanted in the plantar surface of each hind claw between the plantar pads. Rats were allowed to recover from anesthesia and then a stainless steel cylinder was attached which was rotated at 4 rpm, forcing to the rats to walk for 2 minute periods every 30 minutes during 6.5 hours. It was not necessary a training period since rats learned it from the first minute. Contact time between each implanted electrode in rat limb and cylinder was registered. After the uric acid injection, rats progressively developed damaged limb dysfunction. […] This time was considered as zero time for antinoceptive effect measures; these effects are measured every 30 minutes during the following 4 hours. This allowed determining the course of the nociceptive effects in the same animal. Antinociception was considered as a recovery of contact time. Data are expressed as a performance percentage index (IF%; that is, contact time of injected leg divided by contact time of left leg, control, multiplied per 100). For the purpose of this trial, it was unavoidable to induce nociception in experimentation animals. However, care was taken in preventing an unnecessary suffering. All the experiments were performed between 7:00 A.M. and 2:00 P.M.\nAt the end of the study the rats were sacrificed.\nStudy data, tables and figures are expressed as IF%. IF% vs. time curves were prepared for each treatment and the corresponding time course was obtained. Antinociception was estimated as a recovery of IF%. Accumulated antinociceptive effect during all the observation period (4 hours) was determined as the area under the curve (ABC) for time course to obtain the dose-response curve and for analyzing the total antinociceptive effect obtained for the analgesic agent whether alone and in combination.\nABC was calculated for each drug combination and for each of the components. On the basis of addition of individual pharmacological effects (Seegers et al., 1981) an ABC equivalent to the sum was expected. […]"}, "[4]": {"settings": "cited from earlier work"}, "[5]": {"settings": "ketorolac, cited from earlier work"}, "[6]": {"settings": "p.o., two administrations 2.5 hours apart, stomach examined at 5 hours, indomethacin 20 mg/kg, ketorolac 1 mg/kg, tramadol 17.8 mg/kg, combination as in title, six rats"}}, "note": "“And” between values parts separate entries of the source, which are not always exact repeats. Equal entries are not always repeated. Structures can show the parent of a compound that is named as a salt. Where two headings read alike, the source gives them in different places."}
{"smiles": "COc1ccc2c(c1)c(CC(=O)O)c(C)n2C(=O)c1ccc(Cl)cc1", "note": "[Indomethacin]", "values": [{"measurement": "No. of erosions", "setting": "[1]; [6]", "value": "30.0 ± 3.9"}, {"measurement": "Ulcers (sum of the area of all ulcers)", "setting": "[1]; [6]", "value": "51.6 ± 3.4", "unit": "mm^2"}, {"measurement": "Gastric lesion ((Index of ulcers in drug tests / Index of ulcers in indomethacin tests) x 100)", "setting": "[1]", "value": 100, "unit": "%"}]}
{"smiles": "O=C(c1ccccc1)c1ccc2n1CCC2C(=O)O", "note": "(centres unmarked) [Ketorolac, Ketorolac trometamine]", "values": [{"measurement": "Ratio (%Ref), LnAUCINF", "setting": "[2]; human", "value": 95.53, "unit": "%Ref"}, {"measurement": "Ratio (%Ref), Ln (Cmax)", "setting": "[2]", "value": 72.78, "unit": "%Ref"}, {"measurement": "Ulcers (sum of the area of all ulcers)", "setting": "[1]; [6]", "value": "13.7 ± 2.7 mm^2 and 13.7 ± 2.7^c mm^2"}, {"measurement": "Gastric lesion ((Index of ulcers in drug tests / Index of ulcers in indomethacin tests) x 100)", "setting": "[1]", "value": 26.6, "unit": "%"}, {"measurement": "Emax", "setting": "[3]; IF% time course, ketorolac 0.32 mg/kg p.o. alone", "value": "33.7 ± 8.7", "unit": "%"}, {"measurement": "ED50", "setting": "[3]; Rattus norvegicus, po, dose causing 50% of maximum possible effect, linear regression of dose-response curve, ± S.E.M., read-out: DE50 (the source's name)", "value": "0.86 ± 0.1", "unit": "mg/kg"}, {"measurement": "ABC", "setting": "[3]; ketorolac 0.32 mg/kg p.o. alone, 4 hours", "value": "65.0 ± 9.6", "unit": "au"}, {"measurement": "ABC", "setting": "[3]; ketorolac 0.56 mg/kg p.o. alone, 4 hours", "value": "98.7 ± 15.5", "unit": "au"}, {"measurement": "ABC", "setting": "[3]; ketorolac 1.78 mg/kg p.o. alone, 4 hours", "value": "279.0 ± 15.5", "unit": "au"}, {"measurement": "antinociceptive effect (ABC)", "setting": "[3]; ketorolac 3.16 mg/kg p.o., maximum used dose", "value": "295.8 ± 14.9", "unit": "au"}, {"measurement": "effect on walking capacity of rats treated with vehicle", "setting": "[3]; ketorolac 0.18 -5.62 mg/kg, tramadol 3.16-56.23 mg/kg, no uric acid, data not shown", "value": "did not affect the walking capacity"}, {"measurement": "antinociceptive efficiency (ABC)", "setting": "[3]; ketorolac p.o., area under IF% vs time curve, 4 hours, mean ± S.E.M., six animals", "value": "295.8 ± 14.9", "unit": "au"}, {"measurement": "dose removed by urine without any change", "setting": "[4]; ketorolac, remainder excreted in feces", "value": "about 91%"}, {"measurement": "start of analgesic effect", "setting": "[5]; intramuscular administration", "value": 30, "unit": "min"}, {"measurement": "start of analgesic effect", "setting": "[5]; oral administration", "value": 10, "unit": "min"}]}
{"smiles": "COc1cccc(C2(O)CCCCC2CN(C)C)c1", "note": "(centres unmarked) [Tramadol, Tramadol Hydrochloride]", "values": [{"measurement": "No. of erosions", "setting": "[1]; rat, in vivo", "value": 0}, {"measurement": "Ulcers (sum of the area of all ulcers)", "setting": "[1]; rat, in vivo", "value": 0, "unit": "mm^2"}, {"measurement": "ulcers or erosions (in words)", "setting": "[1]; rat, in vivo", "value": "did not cause ulcers or erosions"}, {"measurement": "Antinociceptive effects (ABC)", "setting": "[3]; rat, in vivo", "value": "236.7 ± 11.0", "unit": "au"}, {"measurement": "Emax", "setting": "[3]; rat, in vivo", "value": "17.1 ± 9.1", "unit": "%"}, {"measurement": "antinociceptive activity (ABC)", "setting": "[3]; rat, in vivo", "value": "207.7 ± 24.7", "unit": "au"}, {"measurement": "effect on walking capacity of rats treated with vehicle", "setting": "[3]; rat, in vivo", "value": "did not affect the walking capacity"}, {"measurement": "side effects (sedation, elation, dizziness and effects on walking capacity)", "setting": "[3]; rat, in vivo", "value": "50 % of animals"}, {"measurement": "DE50", "setting": "[3]; rat, in vivo, po", "value": "44.29 ± 0.06", "unit": "mg/kg"}, {"measurement": "bioavailability", "setting": "[4]; in vivo, po", "value": 79, "unit": "%"}, {"measurement": "time to maximum plasma concentrations", "setting": "[4]; in vivo, po", "value": "1.5 to 2", "unit": "h"}]}
